Legend:
TAC-exposed rats = experiment: ECG alterations induced by TAC; format: in vivo; details: for QT dispersion and QTc dispersion increase induced by TAC: TAC after 9 weeks; for QRS duration and R amplitude: TAC at 9 weeks
Protocol: Three or nine weeks after TAC operation, rats were anesthetized with pentobarbital sodium (i.p. 40 mg/kg). The electrocardiogram (ECG) was measured using the II Einthoven lead. Three stainless steel 22G needle electrodes were localized in the insertion of the right (G1) and left (GND) front legs, and in the left (G2) rear leg. Accordingly, 10 min of ECG recordings were digitally acquired at 2 kHz prior to any maneuver. Heart rate variability-Spectral Analysis was performed using fast Fourier transformation. Oscillatory components were separated into very low frequency (VLF; <0.04 Hz), low frequency (LF; 0.04-0.6 Hz), or high frequency (HF; 0.6-2.5 Hz) bands. HRV components were expressed in normalized units (n.u.) as a percentage of total power minus the VLF component.

[1] = system: Diabetic cardiomyopathy (DCM) rats; experiment: Streptozotocin-induced diabetic cardiomyopathy; format: in vivo, Wistar rats; details: STZ diabetes, 12-16 weeks
Protocol: Diabetic cardiomyopathy (DCM) Diabetic induced injury to the myocardium. DCM, induced by streptozotocin (STZ), along with the associated changes occurring in inflammation, oxidative stress and fibrosis markers. Wistar rats were randomly divided into four groups: group A (Normal control), group B (Diabetes), group […] group D (DM/TMZ, trimetazidine treatment). After 12-16 weeks, left ventricular function was measured by the pressure-volume system. Cardiac tissues were prepared for histological study by hematoxlyin and eosin, Sirius red staining as well as for assays of oxidative stress. Oxidative stress, inflammation, and fibrosis markers were evaluated by molecular biological techniques. All data were measured morphometrically and statistically analyzed.

[2] = system: pulmonary hypertension rats; experiment: Pressure overload (TAC)-induced pulmonary hypertension, lung histology; format: in vivo, wistar rats; parameters: Mean vascular wall thickness: unit not given here; details: for Mean vascular wall thickness: 9 weeks TAC
Protocol: Pressure overloaded-induced pulmonary hypertension was induced by transverse aortic constriction in male wistar rats (200±20 g body weight). Sham operated rats served as controls. […] After 9 weeks, animals were sacrificed and lungs were fixed, paraffin-embedded, sectioned, and stained with hematoxylin and eosin. Blinded stereological Analysis of mean wall thickness and vascular muscularization of lung arterial vessels was performed. Collagen I was verified by immune-fluorescent staining and visualized in confocal.

[3] = system: neonatal rat cardiac fibroblasts; experiment: TGF-β induced proliferation of cardiac fibroblasts (MTT); format: cell-based; details: cultured neonatal rat cardiac fibroblasts
Source text: This invention disclosed that compound A can prevent TGF-β induced proliferation in cultured neonatal rat cardiac fibroblasts. Furthermore, this invention disclosed that there were a significant increase in cGMP levels in compound A treated cardiac fibroblasts which is related to its anti-hypertrophy and anti-fibrosis roles.
(§1) Neonatal rat cardiac fibroblasts were isolated from 1-2-day-old Sprague-Dawley rats as described previously. Briefly, hearts from newborn 1-2-day-old Sprague-Dawley rats were minced on ice, and cells were isolated by trypsin incubation at 37° C. Non-cardiomyocytes were separated from the cardiomyocytes by differential pre-plating, and then cardiomyocytes were removed with fibroblasts seeded in culture dishes. The cells were passaged after 3 days, using a 0.05% trypsin solution. Cells were cultured in DEME/F12 medium with 5% fetal calf serum, and maintained at 37° C., 5% CO2 condition.
Viability of cardiac fibroblast in culture was assessed using the 3-(4,5-dimethylthiazol-2-yl)-2,5-diphenyltetrazolium bromide (MTT) method. The assay measures the ability of an active mitochondrial enzyme to reduce the MTT substrate (yellow to blue) in live cells. Isolated primary cardiac fibroblasts were plated in serum-free conditions on 96-well plates. […] Absorbance was measured at 460 nm.

BNP = experiment: Isoproterenol-induced cardiomyocyte hypertrophy (BNP RT-PCR, western blot, size); format: cell-based
Source text: BNP is an important marker for hypertrophy.

male rats = experiment: Penile erection in male rats; format: in vivo; details: relative higher dose
dogs = experiment: Penile erection in male dogs; format: in vivo; details: relative higher dose
sarcolemma KATP channel = experiment: Sarcolemma KATP channel effect
Source text: (§2) This invention disclosed exclusively that compound A per se had no effect on either sarcolemma or mitochondrial KATP channel. Instead, compound A is acting only as a sensitizer which render the KATP channel response greater to known KATP channel openers, such as pinacidil and to change of ATP.

[4] = system: mitochondrial KATP channel; experiment: Mitochondrial KATP channel effect
Source text: as §2

[5] = system: hypertrophy cardiomyocytes; experiment: Cytosol Ca++ in hypertrophy cardiomyocytes; format: cell-based
Source text: This invention disclosed a novel use of inotropic medicine selectively that is compound A can be used to improve the cardiac function in a deteriorative hypertrophy heart without increase cytosol Ca++ or oxygen consumption. In addition it was not worsening the ECG instead it improve the ECG in hypertrophy heart. This is due to that compound A can reduce cardiomyocytes cytosol Ca++ level but enhance only the peak of Ca++ transient during each contraction in hypertrophy cardiomyocytes. This novel finding makes compound A different from other known traditional inotropic medicine such digitalis and beta agonists such as epinephrine.

[6] = system: cardiomyocyte from guinea pig; experiment: Electrophysiology in guinea pig cardiomyocyte after ischemia and reperfusion; format: cell-based
Source text: This invention also disclosed that in cardiomyocyte from guinea pig, that compound A can reduce elongated QT segment and increased QT variations, further it prevent prolonged action potential, decrease resting potential and suppressed Herg (Ikr) currents as result of ischemia and reperfusion. Compound A can also as an scavenger to reduce ROS (reactive oxygen species). Therefore, it can be used for treatment of abnormal ECG in clinic diagnosed with above or used for diseases or clinic procedures which may involve above mentioned mechanism.

[7] = system: cerebral ischemia/reperfusion (I/R) injury; details: within 24 hours; cited from earlier work
cGMP = cGMP ELISA in neonatal rat fibroblasts; format: cell-based; details: 100 um, 3 h
Protocol: as §1, with “condition. cGMP levels in the neonatal rat fibroblasts after treated with vehicle or compound A or sildenafil were measured with an ELISA kit following the manufacture's instruction. Quiescent cells were cultured with different doses of compound A ([…]) or sildenafil ([…]) for 3 h. After treatment, the cells were lysed with 0.1N HCl, and performed cGMP ELISA assay.” for “condition.”

[8] = system: mice exposed to chronic transverse aortic constriction; details: cited from earlier work
[9] = system: embolic middle cerebral artery occlusion; details: oral, seven consecutive days starting 2 h or 24 h after occlusion; cited from earlier work

C[C@@]12CC[C@@H]3[C@@](CC[C@H]4[C@@]3(C)CCC[C@@]4(C)C(=O)O)(CC1=O)C2 [Compound A, (4α,8β,13β)-13-methyl-16-oxo-17-norkauran-18-oic acid]
QT dispersion and QTc dispersion increase induced by TAC (TAC-exposed rats): reversed such effects
QRS duration and R amplitude (TAC-exposed rats): trended normal
cardiac hypertrophy [1]: significant inhibited
Fully muscularization ([2]; 1 mg/kg + TAC): 10.20 ± 9.787 %
Non-muscularization ([2]; 1 mg/kg + TAC): 66.78 ± 5.876 %
Partially muscularization ([2]; 1 mg/kg + TAC): 23.00 ± 3.938%
Fully muscularization ([2]; 4 mg/kg + TAC): 1.851 ± 3.207^#& %
Non-muscularization ([2]; 4 mg/kg + TAC): 81.10 ± 16.60 %
Partially muscularization ([2]; 4 mg/kg + TAC): 17.04 ± 18.98%
number of non-muscularization vessels ([2]; lung, TAC rats): increased
production of collagen I ([2]; lung, TAC rats): reduced
vascular remodeling in small and medium arteries ([2]; lung, TAC rats): prevented
fluorescent intensity of collagen I ([2]; lung, 1 mg/kg + TAC): 10.75
Mean vascular wall thickness ([2]; pulmonary arterioles inner diameter <100 um, 1 mg/kg): 22.96 ± 7.83
Mean vascular wall thickness ([2]; pulmonary arterioles inner diameter <100 um, 4 mg/kg): 17.60 ± 6.28^##&&
Mean vascular wall thickness ([2]; pulmonary arterioles inner diameter >100 um, 1 mg/kg): 16.60 ± 6.00
Mean vascular wall thickness ([2]; pulmonary arterioles inner diameter >100 um, 4 mg/kg): 10.67 ± 5.01
TGF-β induced proliferation [3]: prevent
increase of BNP production and BNP mRNA expression (BNP; cardiomyocytes, isoproterenol stimulus): greatly reduce
increased size of myocardium induced by isoproterenol (BNP; isoproterenol): significantly reduce
penile erection (male rats): long lasting penile erection
penile erection (dogs): long lasting penile erection
effect on sarcolemma KATP channel per se (sarcolemma KATP channel): had no effect
KATP channel response to known openers such as pinacidil and to change of ATP (sarcolemma KATP channel; sarcolemma or mitochondrial not distinguished): sensitizer
effect on mitochondrial KATP channel per se [4]: had no effect
cardiomyocytes cytosol Ca++ level [5]: reduce
peak of Ca++ transient during each contraction [5]: enhance
decrease resting potential [6]: prevent
elongated QT segment and increased QT variations [6]: reduce
prolonged action potential [6]: prevent
suppressed Herg (Ikr) currents [6]: prevent
protection against cerebral I/R injury [7]: protect

CCCc1nn(C)c2c(=O)[nH]c(-c3cc(S(=O)(=O)N4CCN(C)CC4)ccc3OCC)nc12 [sildenafil, reference compound]
Stimulated production of cGMP (cGMP): 141 ± 27%
QT dispersion and QTc dispersion increase induced by TAC (TAC-exposed rats): did not show similar protective effect
QRS duration and R amplitude (TAC-exposed rats): trended normal
Fully muscularization ([2]; 70 mg/kg + TAC): 23.80 ± 8.247 %
Non-muscularization ([2]; 70 mg/kg + TAC): 57.57 ± 7.182 %
Partially muscularization ([2]; 70 mg/kg + TAC): 18.61 ± 15.09%
fluorescent intensity of collagen I ([2]; lung, 70 mg/kg + TAC): 7.591
Mean vascular wall thickness ([2]; pulmonary arterioles inner diameter <100 um, sildenafil): 24.10 ± 7.48
Mean vascular wall thickness ([2]; pulmonary arterioles inner diameter >100 um, sildenafil): 14.88 ± 6.83
chamber and cardiomyocytes hypertrophy [8]: suppresses
infarct volume [9]: without any effect
neurological recovery [9]: significantly enhanced
